Assay results reported in patent US9296697B2, “Hetaryl-substituted guanidine compounds and use thereof as binding partners for 5-HT5-receptors” (Abbott Laboratories, priority 2005, dated 2016).

Target: T1, h5-HT5A receptor (Homo sapiens, UniProt P47898)
T1 construct: expressed in transfected cells; membranes used
Assay: h5-HT5A [3H]5-CT binding assay
Settings: affinity for 5-HT5A; membranes of HEK293 cells expressing the h5-HT5A receptor gene, 2.5 nM [3H]5-CT
Experimental: h5-HT5A [^3H]5-CT Binding Assay
Membranes of HEK293 cells which permanently express the h5-HT5A receptor gene were incubated in 100 mM tris-HCl buffer (pH 7.7) containing 1 mM EDTA, in the presence of 2.5 nM [^3H]5-CT (total volume 600 μL). The total binding is defined as the binding that is observed when the membranes are incubated in the presence of only the radioligand. The inhibition induced by the compound is determined by incubation of cell membranes in the presence of the radioligand and various concentrations of the compound of interest. Nonspecific binding is defined as the [^3H]5-CT binding obtained by incubation of the membranes, the same as for the total binding, but in the presence of 10 μM methiothepine. Following incubation for 75 min at 30° C., the membrane suspension was filtered through a GF/B-Filter coated with 0.03% PEI, using a Skatron® harvesting system. The residual radioactivity in the filter was quantified by liquid scintillation counting.
Various concentrations of the test substances were used in both assays, and the Ki or IC50 values were determined.

T1 sequence (P47898 whole entry): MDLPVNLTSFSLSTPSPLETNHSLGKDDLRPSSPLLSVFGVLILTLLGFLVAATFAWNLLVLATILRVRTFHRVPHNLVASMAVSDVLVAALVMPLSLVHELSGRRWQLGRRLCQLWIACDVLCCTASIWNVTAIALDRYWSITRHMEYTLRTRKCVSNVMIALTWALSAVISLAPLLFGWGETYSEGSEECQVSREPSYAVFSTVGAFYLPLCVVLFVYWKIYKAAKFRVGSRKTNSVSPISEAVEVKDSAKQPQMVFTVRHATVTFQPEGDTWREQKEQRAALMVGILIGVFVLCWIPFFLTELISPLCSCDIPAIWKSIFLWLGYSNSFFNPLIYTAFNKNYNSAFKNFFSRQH

| SMILES | Ki |
| --- | --- |
| COc1ccccc1CNC(=N)Nc1ccccn1 [Example 1, N-(2-methoxybenzyl)-N′-pyridin-2-yl-guanidine acetate] | < 100 nM |
| COc1cccc(OC)c1CNC(=N)Nc1ccc(I)cn1 [Example 3, N-(2,6-dimethoxybenzyl)-N′-(5-iodopyridin-2-yl)guanidine] | < 100 nM |
| COc1ccccc1CN=C(N)Nc1ccc(I)cn1 [Example 4, N-(5-Iodopyridin-2-yl)-N″-(2-methoxybenzyl)guanidine] | < 100 nM |
| COc1cccc(OC)c1CNC(=N)Nc1ccccn1 [Example 5, N-(2,6-dimethoxybenzyl)-N′-pyridin-2-yl-guanidine acetate] | < 100 nM |
| COc1ccccc1CNC(=N)Nc1ccc(C)cn1 [Example 6, N-(2-methoxybenzyl)-N′-(5-methylpyridin-2-yl)guanidine acetate] | < 100 nM |
| COc1cccc(OC)c1CNC(=N)Nc1ccc(C)cn1 [Example 7, N-(2,6-dimethoxybenzyl)-N′-(5-methylpyridin-2-yl)guanidine] | < 100 nM |
| COc1ccccc1CNC(=N)Nc1cccc(C)n1 [Example 8, N-(2-Methoxybenzyl)-N′-(6-methylpyridin-2-yl)guanidine] | < 100 nM |
| COc1cccc(OC)c1CNC(=N)Nc1cccc(C)n1 [Example 9, N-(2,6-dimethoxybenzyl)-N′-(6-methylpyridin-2-yl)guanidine] | < 100 nM |
| COc1ccccc1CNC(=N)Nc1ncc(C(F)(F)F)cc1Cl [Example 10, N-[3-Chloro-5-(trifluoromethyl)pyridin-2-yl]-N′-(2-methoxybenzyl)guanidine acetate] | < 10000 nM |
| COc1cccc(OC)c1CNC(=N)Nc1ncc(C(F)(F)F)cc1Cl [Example 11, N-[3-Chloro-5-(trifluoromethyl)pyridin-2-yl]-N′-(2,6-dimethoxybenzyl)guanidine acetate] | < 10000 nM |
| COc1ccccc1CNC(=N)Nc1ncccc1C [Example 12, N-(2-Methoxybenzyl)-N′-(3-methylpyridin-2-yl)guanidine acetate] | < 100 nM |
| COc1cccc(OC)c1CNC(=N)Nc1ncccc1C [Example 13, N-(2,6-Dimethoxybenzyl)-N′-(3-methylpyridin-2-yl)guanidine acetate] | < 100 nM |

Other lines, results leading:

| Ki | SMILES |
| --- | --- |
| < 10000 nM | COc1ccccc1CNC(=N)Nc1nccc(-c2cccs2)n1 [Example 14, N-(2-Methoxybenzyl)-N′-(4-(2-thienyl)pyrimidin-2-yl]guanidine acetate] |
| < 100 nM | COc1cccc(OC)c1CNC(=N)Nc1nccc(-c2cccs2)n1 [Example 15, N-(2,6-Dimethoxybenzyl)-N′-[4-(2-thienyl)pyrimidin-2-yl]guanidine acetate] |
| < 10000 nM | COc1ccccc1CNC(=N)Nc1cnc2ccccc2c1 [Example 16, N-(2-Methoxybenzyl)-N′-quinolin-3-yl-guanidine acetate] |
| < 100 nM | COc1cccc(OC)c1CNC(=N)Nc1cnc2ccccc2c1 [Example 17, N-(2,6-Dimethoxybenzyl)-N′-quinolin-3-yl-guanidine acetate] |
| < 100 nM | COc1cccc(Cl)c1CNC(=N)Nc1ccc(C)cn1 [Example 18, N-(2-Chloro-6-methoxybenzyl)-N′-(5-methylpyridin-2-yl)guanidine acetate] |
| < 100 nM | COc1cccc(C)c1CNC(=N)Nc1ccc(C)cn1 [Example 19, N-(2-Methoxy-6-methylbenzyl)-N′-(5-methylpyridin-2-yl)guanidine] |
| < 100 nM | COc1cccc(F)c1CNC(=N)Nc1ccc(C)cn1 [Example 20, N-(2-Fluoro-6-methoxybenzyl)-N′-(5-methylpyridin-2-yl)guanidine acetate] |
| < 300 nM | Cc1ccc(NC(=N)NCc2ccccc2Cl)nc1 [Example 21, N-(2-Chlorobenzyl)-N′-(5-methylpyridin-2-yl)guanidine] |
| < 100 nM | CCOc1ccccc1CNC(=N)Nc1ccc(C)cn1 [Example 22, N-(2-Ethoxybenzyl)-N′-(5-methylpyridin-2-yl)guanidine acetate] |
